{"source": "BindingDB's records for doi:10.1021/acs.jmedchem.1c00726", "about": "(University of Florida, 2021)", "molecular_target": "5-hydroxytryptamine receptor 2B (Homo sapiens, UniProt P41595)", "sequence (P41595 whole entry)": "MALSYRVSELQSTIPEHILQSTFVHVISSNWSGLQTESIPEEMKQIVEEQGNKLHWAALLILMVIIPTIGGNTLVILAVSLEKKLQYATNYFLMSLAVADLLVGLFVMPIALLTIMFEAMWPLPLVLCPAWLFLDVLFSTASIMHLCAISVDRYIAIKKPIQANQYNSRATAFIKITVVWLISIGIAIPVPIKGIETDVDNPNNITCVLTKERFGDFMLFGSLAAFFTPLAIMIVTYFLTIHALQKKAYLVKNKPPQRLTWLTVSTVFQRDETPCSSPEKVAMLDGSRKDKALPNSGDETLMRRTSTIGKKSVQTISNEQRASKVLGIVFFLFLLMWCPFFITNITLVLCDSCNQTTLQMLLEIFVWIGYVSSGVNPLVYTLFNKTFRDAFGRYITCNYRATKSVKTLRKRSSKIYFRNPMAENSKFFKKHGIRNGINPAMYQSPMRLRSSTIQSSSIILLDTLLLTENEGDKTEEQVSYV", "assay": "Displacement of [3H]LSD from human recombinant 5-HT2B receptor expressed in CHO cells by radioligand completion assay relative to control", "note": "pKi: −log10 of the molar value."}
{"smiles": "COc1cc(C[C@@H](C)N)c(OC)cc1I", "note": "[(R)-2-(4-iodo-2,5-dimethoxyphenyl)-1-methylethylamine]", "values": [{"measurement": "pKi", "value": 8.66}]}
